# Measurements taken from article PMC3790770 (PLoS ONE, 2013).
# Molecular target: T1, maltose binding protein (MBP) (Escherichia coli, UniProt P0AEX9)
# T1 construct: resulting in an ampicillin-resistant plasmid that expresses cytoplasmic, full-length MBP; made in house
# Assay: Titration monitored by tryptophan fluorescence peak wavelength
# Conditions: sucrose up to ∼[…] without maltose and ∼0.9 M with maltose, 37 °C, pH 7.2
# Protocol: Experiments were performed on a Cary 300 Fluorimeter using 200 nM MBP in 100 mM sodium phosphate buffer (pH 7.2) at 37 °C. […] Crowder titrations were conducted with multiple samples, as addition of crowding agent to concentrations reaching 300 g/L was not feasible in the same sample without large volume and MBP concentration changes.
# Data were analyzed using two different models: a two-state binding model (Figure 2A), and a three-state competitive binding model (Scheme 1).
# Now, [P] represented the sum of the two ligand-free species, i.e., the free protein P and the protein-crowder complex.
smiles,measurement,value
OC[C@H]1O[C@@](CO)(O[C@H]2O[C@H](CO)[C@@H](O)[C@H](O)[C@H]2O)[C@@H](O)[C@@H]1O [sucrose],binding to MBP (sucrose titration),no apparent 1∶1 binding to MBP
